ChEMBL document CHEMBL1127899, “Potent, acid-stable and orally active macrolide-type motilin receptor agonists, GM-611 and the derivatives” (Bioorg Med Chem Lett, 1994)
Converted amounts (≈) assume the structure as drawn.

What was measured:
Streptococcus pneumoniae = test: Antibacterial activity against Streptococcus pneumoniae No.12, activity expressed as MIC; assay type: functional
Oryctolagus cuniculus = organism: Oryctolagus cuniculus; test: Concentration required for in vitro smooth muscle contractile activity of the compound, expressed as negative logarithm of EC50; assay type: functional; conditions: Muscle tissue
Motilin receptor [1] = molecular target: T1, Motilin receptor (Oryctolagus cuniculus, UniProt A5A4K8); test: Concentration required for in vitro acid stability with hydrochloric acid solution (pH 2.5 ) at room temperature for 2 hr by assaying the solution for motilin receptor binding
Motilin receptor [2] = molecular target: T1, Motilin receptor; test: Concentration required for in vitro motilin receptor binding, expressed as negative logarithm of IC50
Canis familiaris [3] = test: Tested for in vivo smooth muscle contractile activity, expressed as MI100 (dose to give 100 of motor index after iv administration); assay type: functional, Canis lupus familiaris, Muscle tissue
Canis familiaris [4] = test: Tested for in vivo smooth muscle contractile activity, expressed as MI100 (dose to give 100 of motor index after ig administration).; assay type: functional, Canis lupus familiaris, Muscle tissue
Bacillus subtilis = test: Antibacterial activity against Bacillus subtilis ATCC 6633, activity expressed as MIC; assay type: functional
Klebsiella pneumoniae = test: Antibacterial activity against Klebsiella pneumoniae IFO 3512, activity expressed as MIC; assay type: functional
Staphylococcus aureus = test: Antibacterial activity against Staphylococcus aureus 209P, activity expressed as MIC; assay type: functional
Escherichia coli = test: Antibacterial activity against Escherichia coli NIHJ JC-2, activity expressed as MIC; assay type: functional

T1 sequence (A5A4K8 whole entry): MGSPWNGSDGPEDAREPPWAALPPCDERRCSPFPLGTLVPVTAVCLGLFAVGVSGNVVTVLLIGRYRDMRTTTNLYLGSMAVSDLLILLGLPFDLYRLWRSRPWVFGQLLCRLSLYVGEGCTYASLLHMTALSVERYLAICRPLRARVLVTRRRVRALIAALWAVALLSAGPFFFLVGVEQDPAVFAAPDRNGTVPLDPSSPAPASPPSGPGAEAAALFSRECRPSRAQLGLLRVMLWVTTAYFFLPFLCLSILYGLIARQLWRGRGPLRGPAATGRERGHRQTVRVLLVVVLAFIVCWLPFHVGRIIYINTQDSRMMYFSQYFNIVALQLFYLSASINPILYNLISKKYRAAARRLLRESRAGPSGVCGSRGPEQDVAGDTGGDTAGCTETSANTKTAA

Row | Structure (SMILES) | MIC (Streptococcus pneumoniae) [µg/mL] | EC50 (Oryctolagus cuniculus) [nM] | IC50 (Motilin receptor [1]) [nM] | IC50 (Motilin receptor [2]) [nM] | MIC (Bacillus subtilis) [µg/mL] | MIC (Klebsiella pneumoniae) [µg/mL] | MIC (Staphylococcus aureus) [µg/mL] | MIC (Escherichia coli) [µg/mL] | MI100 (Canis familiaris [3]) [µg/kg] | MI100 (Canis familiaris [4]) [µg/kg]
1 | CCC1OC(=O)C(C)C(O[C@H]2C[C@@](C)(OC)[C@@H](O)C(C)O2)C(C)[C@@H](OC2OC(C)CC(N(C)CC)[C@H]2O)[C@]2(C)CC(C)=C(O2)[C@H](C)C(=O)[C@]1(C)OC (some centres undefined) | 50 (≈ 67.4 µM) | 43.7 | 6.46 | 3.8 |  |  |  |  | 1.1 | 4.3
2 | CCC1OC(=O)C(C)C(O[C@H]2C[C@@](C)(OC)[C@@H](O)C(C)O2)C(C)[C@@H](OC2OC(C)CC(N(C)C)[C@H]2O)[C@]2(C)CC(C)=C(O2)[C@H](C)C(=O)[C@]1(C)OC (some centres undefined) | 3.1 (≈ 4.26 µM) | 117 | 8.91 | 9.12 | 6.3 (≈ 8.65 µM) | 100 (≈ 137 µM) | 13 (≈ 17.9 µM) |  | 2.9 | 2.4
3 | CCC1OC(=O)C(C)C(O[C@H]2C[C@@](C)(OC)[C@@H](O)C(C)O2)C(C)[C@@H](OC2OC(C)CC(N(C)C(C)C)[C@H]2O)[C@]2(C)CC(C)=C(O2)[C@H](C)C(=O)[C@]1(C)OC (some centres undefined) |  | 38.9 | 7.94 | 6.03 |  |  |  |  | 1 | 1.5
4 | CCC1OC(=O)C(C)C(O[C@H]2C[C@@](C)(OC)[C@@H](O)C(C)O2)C(C)[C@@H](OC2OC(C)CC(N(C)C)[C@H]2O)[C@]2(C)CC(C)C3(O[C@]1(C)[C@H](O)[C@H]3C)O2 (some centres undefined) |  | > 10000 | 170 | 155 |  |  |  |  | >70 | 
5 | CCC1OC(=O)C(C)C(O[C@H]2C[C@@](C)(OC)[C@@H](O)C(C)O2)C(C)[C@@H](OC2OC(C)CC(N(C)C)[C@H]2O)[C@@](C)(O)C[C@@H](C)C(=O)[C@H](C)[C@@H](O)[C@]1(C)O (some centres undefined) | 0.1 (≈ 0.136 µM) | 316 | 70.8 | 43.7 | 0.39 (≈ 0.531 µM) | 6.3 (≈ 8.58 µM) | 0.39 (≈ 0.531 µM) | 100 (≈ 136 µM) | 32.3 | 

Continued by falling EC50 (Oryctolagus cuniculus), values first:

Row | MIC (Streptococcus pneumoniae) [µg/mL] | EC50 (Oryctolagus cuniculus) [nM] | IC50 (Motilin receptor [1]) [nM] | IC50 (Motilin receptor [2]) [nM] | MIC (Bacillus subtilis) [µg/mL] | MIC (Klebsiella pneumoniae) [µg/mL] | MIC (Staphylococcus aureus) [µg/mL] | MIC (Escherichia coli) [µg/mL] | Structure (SMILES) | MI100 (Canis familiaris [3]) [µg/kg] | MI100 (Canis familiaris [4]) [µg/kg]
6 | 25 (≈ 34.2 µM) | 47.9 | 302 | 3.16 | 100 (≈ 137 µM) |  |  |  | CCC1OC(=O)C(C)C(O[C@H]2C[C@@](C)(OC)[C@@H](O)C(C)O2)C(C)[C@@H](OC2OC(C)CC(N(C)CC)[C@H]2O)[C@]2(C)CC(C)=C(O2)[C@H](C)[C@@H](O)[C@]1(C)O (some centres undefined) | 0.9 | 14.9
7 |  | 41.7 | 224 | 3.39 |  |  |  |  | CC[C@H]1OC(=O)[C@H](C)[C@@H](O[C@H]2C[C@@](C)(OC)[C@@H](O)[C@H](C)O2)[C@H](C)[C@@H](O[C@@H]2O[C@H](C)C[C@H](N(C)C)[C@H]2O)[C@@]2(C)CC(C)=C(O2)[C@H](C)[C@@H](O)[C@]1(C)O | 1 | 
